US20250002954A1, “Novel Compound, Use Thereof, and Method for Producing Same, and Compound-Containing Composition, Method for Producing 4-Trehalosamine, and Microorganism” (Microbial Chemistry Research Foundation, priority 2021, published 2025)

Tests used:
[1] = test system: human ovarian cancer cells OVK18 and human malignant melanoma cells Mewo; assay: LC3-II expression in combination with autophagy inhibitor (bafilomycin or chloroquine); assay type: cell-based; details: 50 mM 4-trehalosamine, 50 μM IMCTA-C14 or 100 mM trehalose 14 hours, then 200 nM BM or 100 μM CQ 4 hours
Method: As with the test example 10-1, human ovarian cancer cells OVK18 (obtained from RIKEN BRC) and human malignant melanoma cells Mewo (JCRB0066) were each inoculated on a 12-well microplate at 8×10^4 cells/mL/well, and cultured in DMEM culture medium at 37° C. for 72 hours. After that, a half of the culture fluid in each well was taken and each compound was dissolved so that the final concentration is 50 mM 4-trehalosamine, 50 μM IMCTA-C14, or 100 mM trehalose. After dissolving it sufficiently, the cells were returned to the original well and treated at 37° C. for 14 hours. Untreated cells without addition of the compounds were used as control.
After that, each autophagy inhibitor was added so that the final concentration is 200 nM bafilomycin (BM) or 100 μM chloroquine (CQ), and the cells were cultured at 37° C. for 4 hours. A group with no inhibitor added was cultured in a similar way. After culture, they were turned into samples for western blotting in a similar manner to test example 10-1.
The western blotting was performed in a similar manner to test example 4 except that anti-LC3 antibody (manufactured by Cell Signaling Technology) was used at 1/2,000 dilution as the primary antibody in the method described in test example 4. The results for human ovarian cancer cells OVK18 are shown in FIG. 21A, and the results for human malignant melanoma cells Mewo are shown in FIG. 21B.
Also, the results (graphs) of image analysis on the results of western blotting via Image J (manufactured by National Institutes of Health) are shown in FIGS. 21A and 21B (n=10, mean±S.D.). The vertical axis of the graph indicates the value of the amount of expression (expression amount ratio) of LC3-II for the groups with the different compounds added when the amount of expression of LC3-II in the control (untreated cells) is 1. […]

[2] = test system: aggregated proteins Q74 and SynA53T in SH-SY5Y cells and NH-12 cells; assay: Elimination effect on aggregated protein in cells (Q74, SynA53T); assay type: cell-based, human; details: 100 mM 4-trehalosamine, 70 μM IMCTA-C14 or 100 mM trehalose, 14 hours; SH-SY5Y and NH-12 cells
Method: The effect of 4-trehalosamine or trehalose analog on Q74, which is partial peptide of huntingtin (Htt), the causal protein of Huntington's disease, and SynA53T, which is a mutation of α-synuclein, the causal protein of Parkinson's disease, (both aggregated proteins) was determined in the following manner.
Neuroblastoma cells SH-SY5Y (obtained from European Collection of Authenticated Cell Cultures (ECACC)) and human neuroblastoma cells NH-12 (obtained from RIKEN BRC) were each inoculated at 14×10^4 cells/mL and cultured in DMEM culture medium at 37° C. for 48 hours.
After the culture of SH-SY5Y cells and NH-12 cells, pEGFP-Q74 vector or EGFP-alphasynuclein-A53T (both obtained from addgene), which are expression vectors of aggregated protein, were transfected with transfection reagent (Viafect, manufactured by Promega). After 24 hours from the transfection, 100 mM 4-trehalosamine, 70 μM IMCTA-C14, or 100 mM trehalose was added and the cells were further treated for 14 hours. Untreated cells without addition of the compounds were used as control. After washing the cells three times with PBS, hyposmotic fluid (solution of one tablet of cOmplete, Mini, EDTA-free Protease Inhibitor Cocktail (CM, manufactured by Merck) in 50 mL of pure water) was added and the mixture was shaken on ice for 10 minutes. It was then centrifuged at 21,300×g for 10 minutes to be separated into soluble protein (Sol) and aggregated protein (Agg) […]. Thereafter, they were turned into samples for western blotting in a similar manner to test example 10-1.
The western blotting was performed in a similar manner to test example 4 except that anti-GFP antibody (manufactured by Proteintech) was used at 1/5,000 dilution and anti-LC3 antibody (manufactured by Cell Signaling Technology) was used at 1/2,000 dilution as the primary antibodies in the method described in test example 4. The results for neuroblastoma cells SH-SY5Y are shown in FIGS. 22A and 22B, and the results for human neuroblastoma cells NH-12 are shown in FIGS. 22C and 22D. […]

[3] = test system: human ovarian cancer cells OVK18 and human malignant melanoma cells Mewo; assay: Autophagy inducing effect on cultured cells (western blotting of autophagy-related proteins); assay type: cell-based
Method: Expression and phosphorylation patterns of autophagy-related proteins when human ovarian cancer cells or human malignant melanoma cells were treated with 4-trehalosamine and trehalose analog for 24 hours were determined by western blotting.
Human ovarian cancer cells OVK18 (obtained from RIKEN BRC) and human malignant melanoma cells Mewo (JCRB0066) were each inoculated on a 12-well microplate at 8×10^4 cells/mL/well and cultured in DMEM culture medium at 37° C. for 72 hours, after which they were treated with test samples.
The test samples used were the 4-trehalosamine (4TA) obtained in the <Purification process> of production example 10, trehalose (TRH), the IMCTA-Cn compounds obtained in synthesis examples 1 to 8, trehalose ester (TRH-Cn) (manufactured by Dojindo Laboratories), n-dodecyl-β-D-maltoside (DDM), maltose (MLT), sucrose (SCR), and rapamycin (RM). Untreated cells without addition of compounds were used as control.
In treatment with the test samples, in order to avoid contact of a compound with locally high concentration with cells, a half of the culture fluid in each well was taken, and a required amount of test sample was dissolved in it. After dissolving it sufficiently, it was returned to the original well and treated at 37° C. for 24 hours.
Subsequently, culture medium containing the test samples was removed, washed once with PBS, and dissolved with 2×SDS sample buffer not containing 2-mercaptoethanol (2-ME) or bromphenol blue (BPB). After measuring the protein concentration in the dissolved sample with a BCA protein assay kit (manufactured by Thermo Fisher Scientific), 2-ME and BPB were added and the sample was boiled for 5 minutes, which was used as a sample for western blotting.
The western blotting was performed in a similar manner to test example 4 except that anti-LC3 antibody, which is a marker for autophagy, anti-p62, anti-cathepsin D antibody, anti-Phospho-Akt (Ser473) antibody, anti-Akt antibody, anti-Phospho-p70 S6K (T389) antibody, and anti-p70 S6K antibody (all manufactured by Cell Signaling Technology) were used at 1/2,000 dilution as the primary antibodies in the method described in test example 4.
The results for human ovarian cancer cells OVK18 are shown in FIGS. 20A to 20C, and the results for human malignant melanoma cells Mewo are shown in FIGS. 20D to 20F. In FIGS. 20A, 20B, 20D, and 20E, “PCD” denotes precursors of cathepsin D and “CD-HC” denotes cathepsin D heavy chain.

[4] = Measurement of critical micelle concentration (CMC) with CMC assay kit; assay type: physicochemical
Method: (§1) For the IMCTA-C8, IMCTA-C9, IMCTA-C10, IMCTA-C11, IMCTA-C12, IMCTA-C13, IMCTA-C14, and IMCTA-C15 (IMCTA-Cn) that were obtained in synthesis examples 1 to 8 and for n-dodecyl-β-D-maltoside (DDM) as control, “critical micelle concentration (CMC)”, “micelle size”, and “Hydrophilic-Lipophilic Balance (HLB) value” were measured or calculated in the following manner.
CMC was measured with a Detergent Critical Micelle Concentration (CMC) Assay Kit (CMC1000, manufactured by ProFoldin) according to the product protocol.

[5] = Measurement of micelle size by dynamic light scattering; assay type: physicochemical
Method: as §1
Micelle sizes were measured by dynamic light scattering with Zetasizer Nano S (manufactured by Malvern Panalytical).

[6] = test system: Mycobacterium smegmatis mc^2 (ATCC 700084); assay: Staining of mycobacterium with IMCTA-fluorescein, IMCTA-biotin or IMCTA-azide; assay type: cell-based
[7] = test system: Mycobacterium smegmatis bacterial cells; assay: TLC analysis of lipid components of IMCTA-fluorescein stained cells; assay type: cell-based; details: bacterial cells which had ingested IMCTA-fluorescein
Method: TLC analysis was performed on the lipid components of bacterial cell suspension of Mycobacterium smegmatis bacterial cells stained with IMCTA-fluorescein in test example 11-1 or bacterial cell suspension of Mycobacterium smegmatis bacterial cells treated with DMSO.
The TLC analysis was performed based on the method of Kai et al. (M. Kai et al., FEBS Lett 2007, 581, p. 3345-3350).
The bacterial cell suspension of Mycobacterium smegmatis bacterial cells stained with IMCTA-fluorescein in test example 11-1 or the bacterial cell suspension of Mycobacterium smegmatis bacterial cells treated with DMSO was centrifuged at 21,300×g for 1 minute. […]
In the TLC analysis, a Silica gel 60 TLC plate (manufactured by Merck) was used and the solvent was developed with chloroform/methanol/acetone/acetonitrile (90:10:6:1, v/v). The lipid as a whole was detected with phosphomolybdic acid solution similar to that in test example 1 and fluorescence was detected with a UV trans-illuminator (NTFM-20, manufactured by Analytik Jena US LLC).
The phosphomolybdic acid staining patterns for the entire component are shown in FIG. 26A and the fluorescence detection patterns are shown in FIG. 26B. […] In FIG. 26B, the arrows indicate components for which fluorescence is seen only in the IMCTA-fluorescein treated sample.

| CMC [4] [mM] | Micelle size [5] [nm] | Compound | expression of LC3-II in combination with bafilomycin (BM) or chloroquine (CQ) [1] | aggregate of Q74 and aggregate of SynA53T [2] | accumulation of PCD (precursors of cathepsin D) ([3]; 24 hours) | concentration giving same or higher LC3-II expression, relative to trehalose ([3]; 24 hours) | p62 ([3]; 24 hours) | pAkt ([3]; 24 hours) | phosphorylation of p70 S6K ([3]; 24 hours) | expression of LC3-II (autophagy marker) ([3]; 24 hours treatment, western blotting) | ingestion into bacterial cells and fluorescence (staining) ([6]; 10 μg/mL IMCTA-fluorescein, 30 μg/mL IMCTA-biotin, 10 μg/mL IMCTA-azide, 37° C., 8 hours) | ingestion in the presence of sucrose (blocking) ([6]; sucrose 1% or 3%) | ingestion in the presence of trehalose (blocking) ([6]; trehalose 1% or 3%) | fluorescent lipids detected by TLC [7] |
| --- | --- | --- | --- | --- | --- | --- | --- | --- | --- | --- | --- | --- | --- | --- |
| 0.11 | 16.5 ± 4.4 | CCCCCCCCCCCCCCN[C@@H]1C(CO)O[C@H](O[C@H]2OC(CO)[C@@H](O)C(O)C2O)C(O)C1O (some centres unmarked) [IMCTA-C14] | increased expression of LC3-II | significantly decreased | no accumulation of PCD was observed | several thousand times lower than trehalose | accumulation trend of p62 | decreasing trend of pAkt | p70 S6K was not dephosphorylated | particularly strong expression |  |  |  |  |
|  |  | O=C(N[C@@H]1C(CO)O[C@H](O[C@H]2OC(CO)[C@@H](O)C(O)C2O)C(O)C1O)c1ccc2c(c1)C(=O)OC21c2ccc(O)cc2Oc2cc(O)ccc21 (some centres unmarked) [IMCTA-fluorescein] |  |  |  |  |  |  |  |  | ingested into Mycobacterium smegmatis bacterial cells and emitted fluorescence | no significant inhibition | inhibition was observed in the presence of 1% trehalose | two fluorescent lipids were detected |
